The text below walks through data of patent publication EP2873675A1, “Peptide-based peroxidase inhibitors and methods of using same” (The Medical College of Wisconsin, Inc., priority 2013, dated 2015).

Series [1] deals with MPO. Nature of the series: MPO-mediated LDL oxidation (conjugated diene formation, absorbance at 234 nm). The class given is biochemical. The settings on record: for conjugated diene formation in the LDL solution: for more than 2 hours. As to the method:
MPO-mediated oxidation of LDL. Reaction mixtures contained LDL (0.15 mg/ml), NaNO2 (100 µM), H2O2 (300 µM), MPO (20 nM) and various concentrations of KYC in a potassium phosphate buffer (100 mM, pH 7.4) containing DTPA (100 µM). LDL oxidation was monitored at 234 nm at room temperature on a HP UV/VIS spectrometer. Absorbance traces represent the average of duplicate experiments.
MPO-mediated LDL Oxidation. Reaction mixtures contained LDL (0.15 mg/mL), NaNO2 (100 µM), H2O2 (100 µM), MPO (20 nM) and increasing concentrations of KYC in a phosphate buffer (100 mM, pH 7.4) containing DTPA (100 µM). Rates of LDL oxidation were monitored at room temperature at 234 nm, the wavelength maximum for conjugated dienes.
MPO-mediated LDL Conjugated Diene Formation: Reaction mixtures contained LDL (0.15 mg/mL), NaNO2 (100 µM), H2O2 (100 µM), MPO (20 nM) and increasing concentrations of KYC or equimolar concentrations of various compounds in a phosphate buffer (100 mM, pH 7.4) containing DTPA (100 µM). Rates of LDL conjugated diene formation were determined by following changes in absorbance at 234 nm, the wavelength maximum for conjugated dienes, on a UV-Vis spectrophotometer (Agilent Model 8453) at room temperature.

For series [2], the system named is facialis arteries from non-treated SCD mice. The series can be described thus: Vasodilatation of facialis arteries from untreated SCD mice, treated ex vivo in the vessel bath. To be noted: 1.5 µg/ml added to vessel bath, 20 min. On the procedure:
For vessels treated with KYC (ex-vivo): Using untreated SCD mice, the vessels were isolated/ cannulated the same as for the mice treated with KYC in vivo. After the control dose-response curve using acetylcholine (ACh, 10^-7 - 10^-4 M) and subsequent washing, the vessels were incubated with KYC 1.5 µg/ml for 20 minutes, pre-constricted, and exposed to acetylcholine (ACh, 10^-7 - 10^-4 M). Vasodilation to papaverine (2.0X10^-4 M) was determined after all treatments to ensure smooth muscle viability. Vasodilation was calculated as a percent of maximal vessel diameter change.

The test system of series [3] is MPO. Nature of the series: MPO-mediated nitration of bovine serum albumin (western blot). It is filed as biochemical. The settings on record: for MPO-mediated BSA nitration: H2O2 100 µM, nitrite 100 µM. On the procedure: MPO-mediated Nitration of Bovine Serum Albumin (BSA). BSA (0.5 mg/mL) was incubated with MPO (20 nM), H2O2 (100 µM), nitrite (100 µM) and increasing concentrations of KYC in phosphate buffer (100 mM, pH 7.4) containing DTPA (100 µM) for 30 min. Reactions were stopped by addition of catalase. Nitrotyrosine formation was assessed by western blot analysis.
MPO-mediated Nitration of Bovine Serum Albumin (BSA): BSA (0.5 mg/mL) was incubated with MPO (20 nM), H2O2 (25 µM), NaNO2 (50 µM) and increasing concentrations of KYC in phosphate buffer (100 mM, pH 7.4) containing DTPA (100 µM) for 30 min. Reactions were halted by addition of catalase (2,000 units/mL). NO2Tyr formation was assessed by western blot analysis with an anti-NO2Tyr rabbit polyclonal antibody (EMD, Gibbstown, NJ).
For orientation: Immunoblotting shows a protein as a band on a membrane.

The subject of another series is SCD mice. Nature of the series: Vessel wall thickness of facialis arteries from SCD mice. The class given is in vivo. To be noted: 0.3 mg/kg/d, 3 weeks; after papaverine; P=0.10. As to the method:
Vessel Wall Thickness. After completing the vasodilatation studies, the pressurized vessels were maximally dilated by addition of papaverine (10^-4 mol/L, 4 min), and outside and inside diameters recorded. An index of wall thickness was calculated using the following formula; ([outside diameter/inside diameter]/2)/outside diameter, as previously described.

The next series concerns NADPH oxidase (NOX). Nature of the series: PMA-stimulated HL-60 cell superoxide formation (SOD-inhibitable cytochrome C reduction). The settings on record: cytochrome C assay. The class given is cell-based, human. On the procedure:
PMA-induced Superoxide Anion Formation. HL-60 cells were cultured in RPMI 1640 medium containing 10 % FCS (passage 20-50). HL-60 cells were harvested by centrifugation (1000 rpm, 10 min), washed 2X with phosphate buffer (10 mM, pH 7.4) with NaCl (138 mM), KCl (2.67 mM), CaCl2 (0.901 mM), MgCl2 (0.493 mM) and glucose (1mg/ml) to remove culture medium. The HL-60 cells (6 x10^6/0.5ml) were re-suspended in DPBS. After stimulation with PMA (10 µM), the HL-60 cells were incubated with cytochrome C (40 µM) with or without superoxide dismutase at 37°C for 30 min. The reaction was stopped by centrifugation. Cytochrome C reduction was measured at 550 nm on a UV-Vis spectrophotometer (Agilent, Model 8453).
PMA-stimulated HL-60 cell O2^•- Formation: HL-60 cells were harvested by centrifugation (1000 rpm, 10 min), washed twice with DPBS with glucose to remove culture medium. The HL-60 cells (1.2 x10^7/ml) were re-suspended in DPBS with glucose. After stimulation with PMA (10 µM), the HL-60 cells were incubated with cytochrome C (40 µM) with or without superoxide dismutase (500 units/mL) at 37 °C for 10 min and then the HL-60 cells were removed by centrifugation. Cytochrome C reduction in supernatants was measured at 550 nm using a UV-Vis spectrophotometer (Agilent, Model 8453).

Series [4] in a line: Solubility in water / physiological buffers. It is filed as physicochemical. To be noted: can be added directly to physiological buffers.
For series [5], the system named is MPO. Nature of the series: MPO-mediated LDL malondialdehyde (MDA) formation. It is filed as biochemical. To be noted: increasing concentrations; LDL 0.5 mg/mL, MPO 50 nM, H2O2 50 µM, NO2 50 µM. As to the method:
MPO-mediated LDL Malondialdehyde (MDA) Formation: Reaction mixtures contained LDL (0.5 mg/mL), NaNO2 (50 µM), H2O2 (50 µM), MPO (50 nM) and increasing concentrations of KYC in a phosphate buffer (100 mM, pH 7.4) containing DTPA (100 µM). After incubation at 37 °C for 4 h, the reactions were stopped by addition of catalase (2,000 units/mL). The formation of MDA was determined according to a published procedure. Briefly, incubation mixtures (containing 25 mM BHT) were adjusted to pH 1.5 and incubated at 60 °C for 80 min to hydrolyze the Schiff Bases formed from MDA and protein. The samples were mixed with 3-fold volume of N-methyl-2-phenylindole (13.4 mM in acetonitrile/methanol (3:1)). After centrifugation (13000 g, 5 min) 330 µL of the supernatants were mixed with 57.5 µL of concentrated HCl and incubated at 45 °C for another 60 min. Finally, after centrifugation (13000 g, 5 min), total MDA in the samples was determined from the absorbance at 586 nm using a UV-Vis spectrophotometer (Agilent Model 8453).

“Also recorded” adds a separate entry of the source. Residues, ends and D or L forms follow the SMILES beside them.

With `CC(=O)N[C@@H](CCCCN)C(=O)N[C@@H](Cc1ccc(O)cc1)C(=O)N[C@@H](CS)C(N)=O` [KYC, N-acetyl Lysyltyrosylcysteine amide] (Ac-Lys-Tyr-Cys-NH2), in the series on MPO [1] (4 µM, MPO/H2O2/nitrite, H2O2 300 µM, lag time without peptide 25 min), the “lag time of conjugated diene formation” value is 90 min. The “reduction of the rate of LDL oxidation” value in the series with MPO [1] (4 µM, at the end of the 2 hour incubation, on the basis of absorbance values) is listed as about 80%. Moreover, the “conjugated diene formation in the LDL solution” value is “totally suppresses” with MPO [1] (20 µM, MPO/H2O2/nitrite, H2O2 300 µM) and “totally suppresses” in the series on MPO [1] (100 µM, MPO/H2O2/nitrite, H2O2 300 µM). Also, the “MPO/H2O2/nitrite-mediated LDL oxidation” value in the series with MPO [1] (25 µM, H2O2 100 µM, NaNO2 100 µM, MPO 20 nM) is given as “completely suppressed”. The “vasodilatation in response to ACh” value in series [2] is given as “did not increase vasodilatation”. Also, the “MPO-mediated BSA nitration” value is listed as “inhibits” in the series with MPO [3] (30 µM) and “essentially ablates” in the series with MPO [3] (250 µM). In addition, in the series on MPO [3] (50 µM, H2O2 25 µM, NaNO2 50 µM), the “NO2Tyr formation in BSA” value is given as “essentially ablated”. Besides, the vessel wall thickness result in the series on SCD mice is recorded as “reduces vessel wall thickness”. Besides, the “O2•- production in PMA-stimulated HL-60 cells” value in the series with NADPH oxidase (NOX) is on record as “neither KYC nor KYC disulfide have any significant effect; also recorded: Neither KYC nor KYC disulfide had any significant effect”. Also, in series [4], the solubility in water entry is reported as “highly water soluble”. For the same compound, the “MPO-mediated MDA formation in LDL” value in the series on MPO [5] is given as “dose-dependently inhibited”.
